ChEMBL document CHEMBL1201862, “PubChem BioAssay data set” (2004)
Calls of active or inactive are those of the source.

Columns and labels:
[1] = target: Serine/threonine-protein kinase Chk1 (Homo sapiens, UniProt O14757); format: functional;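 further: measured as one member of a kinome-wide kinase profiling panel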
[2] = target: Serine/threonine-protein kinase PLK3 (Homo sapiens, UniProt Q9H4B4); format: functional
[3] = target: Mitogen-activated protein kinase 9 (Homo sapiens, UniProt P45984); format: functional;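 further: value from a kinome panel profiling assay, MAPK9 panel entry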
[4] = target: G protein-coupled receptor kinase 5 (Homo sapiens, UniProt P34947); experiment: Navigating the Kinome. Panel member name: GPRK5; format: functional
[5] = target: RAC-gamma serine/threonine-protein kinase (Homo sapiens, UniProt Q9Y243); format: functional
[6] = target: Glycogen synthase kinase-3 alpha (Homo sapiens, UniProt P49840); format: functional;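 further: GSK3A result taken from a broad kinome-wide kinase panel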
[7] = target: Cyclin-dependent kinase 8 (Homo sapiens, UniProt P49336); experiment: Navigating the Kinome. Panel member name: CDK8; format: functional
[8] = target: Serine/threonine-protein kinase D3 (Homo sapiens, UniProt O94806); format: functional;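 further: determined within a kinase panel screen, with PRKCN as the panel member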
[9] = target: Serine/threonine-protein kinase pim-3 (Homo sapiens, UniProt Q86V86); format: functional;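 further: value obtained as one member of a broad kinase panel profiling effort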
[10] = target: Dual specificity protein kinase CLK4 (Homo sapiens, UniProt Q9HAZ1); format: functional
[11] = target: Serine/threonine-protein kinase PLK1 (Homo sapiens, UniProt P53350); format: functional;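 further: PLK1 measured as one member of a kinome-wide profiling panel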
[12] = target: Serine/threonine-protein kinase PAK 4 (Homo sapiens, UniProt O96013); format: functional;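 further: value obtained within a kinome profiling panel in which PAK4 was one of the panel members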
[13] = target: Serine/threonine-protein kinase TBK1 (Homo sapiens, UniProt Q9UHD2); experiment: Navigating the Kinome. Panel member name: TBK1; format: functional
[14] = target: Dual specificity mitogen-activated protein kinase kinase 2 (Homo sapiens, UniProt P36507); experiment: Navigating the Kinome. Panel member name: MAP2K2; format: functional
[15] = target: Leucine-rich repeat serine/threonine-protein kinase 2 (Homo sapiens, UniProt Q5S007); format: functional;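 further: value from a broad kinome-wide panel profiling study in which LRRK2 was one of the kinases tested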
[16] = target: Dual specificity tyrosine-phosphorylation-regulated kinase 1B (Homo sapiens, UniProt Q9Y463); experiment: Navigating the Kinome. Panel member name: DYRK1B; format: functional
[17] = target: Dual specificity mitogen-activated protein kinase kinase 1 (Homo sapiens, UniProt Q02750); experiment: Navigating the Kinome. Panel member name: MAP2K1; format: functional
[18] = target: Dual specificity protein kinase CLK2 (Homo sapiens, UniProt P49760); format: functional
[19] = target: 5'-AMP-activated protein kinase catalytic subunit alpha-1 (Homo sapiens, UniProt Q13131); format: functional
[20] = target: Cyclin-dependent kinase 5 (Homo sapiens, UniProt Q00535); format: functional;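 further: CDK5 measured as one member of a kinase profiling panel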
[21] = target: Aurora kinase B (Homo sapiens, UniProt Q96GD4); format: functional
[22] = target: Macrophage-stimulating protein receptor (Homo sapiens, UniProt Q04912); experiment: Navigating the Kinome. Panel member name: MST1R; format: functional
[23] = target: Glycogen synthase kinase-3 beta (Homo sapiens, UniProt P49841); format: functional;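 further: value comes from a broad kinome profiling panel, with GSK3B as the panel member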
[24] = target: Rho-associated protein kinase 1 (Homo sapiens, UniProt Q13464); format: functional;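 further: measured within a broad kinome-wide panel profiling many kinases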
[25] = target: Inhibitor of nuclear factor kappa-B kinase subunit epsilon (Homo sapiens, UniProt Q14164); experiment: Navigating the Kinome. Panel member name: IKBKE; format: functional
[26] = target: cAMP-dependent protein kinase catalytic subunit PRKX (Homo sapiens, UniProt P51817); format: functional
[27] = target: BDNF/NT-3 growth factors receptor (Homo sapiens, UniProt Q16620); format: functional;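 further: NTRK2 measured as one member of a broad kinome-wide kinase profiling panel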
[28] = target: Serine/threonine-protein kinase Nek2 (Homo sapiens, UniProt P51955); format: functional
[29] = target: Fibroblast growth factor receptor 1 (Homo sapiens, UniProt P11362); format: functional
[30] = target: Dual specificity tyrosine-phosphorylation-regulated kinase 1A (Homo sapiens, UniProt Q13627); format: functional;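 further: measured against DYRK1A as one member of a broad kinome profiling panel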
[31] = target: Activated CDC42 kinase 1 (Homo sapiens, UniProt Q07912); experiment: Navigating the Kinome. Panel member name: ACK1; format: functional
[32] = target: LIM domain kinase 1 (Homo sapiens, UniProt P53667); experiment: Navigating the Kinome. Panel member name: LIMK1; format: functional
[33] = target: RAC-alpha serine/threonine-protein kinase (Homo sapiens, UniProt P31749); format: functional;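 further: AKT1 affinity measured as one member of a kinome-wide kinase profiling panel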
[34] = target: Ribosomal protein S6 kinase alpha-3 (Homo sapiens, UniProt P51812); format: functional;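 further: measured within a kinome-wide profiling panel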
[35] = target: Casein kinase I isoform alpha (Homo sapiens, UniProt P48729); format: functional
[36] = target: Mitogen-activated protein kinase 14 (Homo sapiens, UniProt Q16539); format: functional;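 further: part of a kinome-wide panel, MAPK14 entry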
[37] = target: Serine/threonine-protein kinase pim-1 (Homo sapiens, UniProt P11309); format: functional
[38] = target: Cyclin-dependent kinase 7 (Homo sapiens, UniProt P50613); format: functional;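 further: value comes from a kinome-wide kinase profiling panel in which CDK7 is one member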
[39] = target: Calcium/calmodulin-dependent protein kinase type II subunit alpha (Homo sapiens, UniProt Q9UQM7); experiment: Navigating the Kinome. Panel member name: CAMK2A; format: functional
[40] = target: Serine/threonine-protein kinase TAO1 (Homo sapiens, UniProt Q7L7X3); format: functional
[41] = target: Melanocortin receptor 4 (Homo sapiens, UniProt P32245); experiment: inhibitors of MC4R cAMP signaling – cell-based, TR-FRET, biased antagonists, dose response (AID 602298); format: functional;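 further: antagonist potency against agonist-stimulated cAMP production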
[42] = cAMP pathway inhibition in counterscreen cell line – TR-FRET cAMP detection, counter-screen for MC4R biased antagonist project, dose response (AID 602305); format: functional, cell-based;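 further: U2OS cells stimulated with forskolin near its EC80 as the cAMP inducer; potency is for inhibition of forskolin-stimulated cAMP signaling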
[43] = viability loss in HEK293 cells – cell-based, plate reader, cherry-picked samples, cytotoxicity control, dose response (AID 743446); format: functional
[44] = viability of BHK-21 cells – cell-based, secondary screen, cytotoxicity control for flavivirus guanylyltransferase probe project (AID 624078); format: functional
[45] = target: T1, Polyadenylate-binding protein 1 (Homo sapiens, UniProt P11940); experiment: MLLE domain peptide-binding blockers, IC50 – biochemical, fluorescence polarization, FITC-PAM2 peptide, dose response (AID 602259); format: functional; conditions: read-out: IC50_Mean
[46] = disruptors of CAL PDZ reporter peptide binding – biochemical, fluorescence polarization, untagged CAL PDZ, dry powder, dose response (AID 602255); format: functional
[47] = target: T2, Cystic fibrosis transmembrane conductance regulator/Golgi-associated PDZ and coiled-coil motif-containing protein (Homo sapiens, UniProt P13569+Q9HD26); experiment: disruption of CAL PDZ–reporter peptide interaction – biochemical, fluorescence polarization, Cer-tagged CAL PDZ, dry powder, dose response (AID 602253); format: functional
[48] = target: T2, Cystic fibrosis transmembrane conductance regulator/Golgi-associated PDZ and coiled-coil motif-containing protein; experiment: potency against CAL PDZ-peptide interaction – biochemical, fluorescence polarization, Cerulean-tagged CAL PDZ, cherry-picks, dose response (AID 504773)
[49] = tested on: Vero; experiment: viability of Vero cells under compound – cytotoxicity control for flavivirus capping enzyme inhibitors (AID 588742); format: functional; conditions: Chlorocebus sabaeus
[50] = blockade of melanocortin 4 receptor signaling – cell-based, plate reader, cherry pick, counter-screen for LGR2 antagonist project, dose response (AID 743444); format: functional;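 further: transfected HEK 293 cells stimulated with alpha-MSH peptide; potency of inhibitors of the alpha-MSH evoked signal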
[51] = target: Hexokinase HKDC1 (Homo sapiens, UniProt Q2TB90); experiment: inhibition of HKDC1 glucose phosphorylation – biochemical, W721R variant, dose response (AID 504729); format: functional
[52] = target: Genome polyprotein (dengue virus type 2, UniProt P29990); experiment: flavivirus cap methylation enzyme inhibition – biochemical, confirmation dose response, primary screen (AID 588689); format: functional
[53] = target: Induced myeloid leukemia cell differentiation protein Mcl-1 (Homo sapiens, UniProt Q07820); format: functional
[54] = A549 cell cytotoxicity, dose response, cytotoxicity control, plate reader, cherry-pick, antagonist series (AID 743412); format: functional, cell-based
[55] = toxicity toward HepG2 liver cells – cell-based, plate reader, cherry-pick, antagonist series, cytotoxicity control, dose response (AID 743416); format: functional
[56] = target: Transitional endoplasmic reticulum ATPase (Homo sapiens, UniProt P55072); experiment: p97 ATPase inhibitors, dose response, biochemical (AID 1534)
[57] = target: T3, Tyrosyl-DNA phosphodiesterase 2 (Homo sapiens, UniProt O95551); experiment: potency against TDP2 phosphodiesterase activity – biochemical, epi absorbance, IC50, dose response (AID 743297)
T3 sequence (O95551 whole entry): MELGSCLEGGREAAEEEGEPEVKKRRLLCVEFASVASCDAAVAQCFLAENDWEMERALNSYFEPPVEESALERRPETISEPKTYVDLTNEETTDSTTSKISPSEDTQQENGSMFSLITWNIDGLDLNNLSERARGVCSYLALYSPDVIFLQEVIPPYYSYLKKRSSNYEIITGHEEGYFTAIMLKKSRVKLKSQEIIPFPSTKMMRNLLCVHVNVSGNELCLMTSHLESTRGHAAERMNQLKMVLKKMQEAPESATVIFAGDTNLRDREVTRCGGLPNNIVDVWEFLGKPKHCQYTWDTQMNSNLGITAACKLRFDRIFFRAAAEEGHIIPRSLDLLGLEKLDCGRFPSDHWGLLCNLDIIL

[58] = target: Glucose-6-phosphate 1-dehydrogenase (Homo sapiens, UniProt P11413); experiment: inhibition of Homo sapiens G6PD, dose series – biochemical, fluorescence, selectivity assay for P. falciparum G6PD inhibitor project, dose response (AID 504792); format: functional
[59] = target: T1, Polyadenylate-binding protein 1; experiment: MLLE binding blockers, Cy5 peptide tracer – biochemical, fluorescence polarization, Cy5-PAM2 peptide, secondary, miRNA deadenylation inhibitor project, dose response (AID 602260); format: functional; conditions: read-out: IC50_Mean
[60] = target: Transitional endoplasmic reticulum ATPase (Homo sapiens, UniProt P55072, C522A); experiment: C522A mutant p97 ATPase inhibitors, dose response, counter-screen for p97 inhibitor project, biochemical, luminescence (AID 1544)
[61] = target: High affinity nerve growth factor receptor (Homo sapiens, UniProt P04629); format: functional;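 further: NTRK1 tested as one member of a kinome-wide profiling panel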
[62] = target: Hepatocyte growth factor receptor (Homo sapiens, UniProt P08581); format: functional;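 further: kinase panel profiling across the kinome, with MET as the panel member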
[63] = target: cAMP-dependent protein kinase catalytic subunit alpha (Homo sapiens, UniProt P17612); format: functional
[64] = target: Vascular endothelial growth factor receptor 2 (Homo sapiens, UniProt P35968); format: functional
[65] = target: Aurora kinase A (Homo sapiens, UniProt O14965); format: functional;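 further: value from the Navigating the Kinome kinase panel profiling, panel entry STK6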

T2 sequence (P13569 whole entry, other chains not shown): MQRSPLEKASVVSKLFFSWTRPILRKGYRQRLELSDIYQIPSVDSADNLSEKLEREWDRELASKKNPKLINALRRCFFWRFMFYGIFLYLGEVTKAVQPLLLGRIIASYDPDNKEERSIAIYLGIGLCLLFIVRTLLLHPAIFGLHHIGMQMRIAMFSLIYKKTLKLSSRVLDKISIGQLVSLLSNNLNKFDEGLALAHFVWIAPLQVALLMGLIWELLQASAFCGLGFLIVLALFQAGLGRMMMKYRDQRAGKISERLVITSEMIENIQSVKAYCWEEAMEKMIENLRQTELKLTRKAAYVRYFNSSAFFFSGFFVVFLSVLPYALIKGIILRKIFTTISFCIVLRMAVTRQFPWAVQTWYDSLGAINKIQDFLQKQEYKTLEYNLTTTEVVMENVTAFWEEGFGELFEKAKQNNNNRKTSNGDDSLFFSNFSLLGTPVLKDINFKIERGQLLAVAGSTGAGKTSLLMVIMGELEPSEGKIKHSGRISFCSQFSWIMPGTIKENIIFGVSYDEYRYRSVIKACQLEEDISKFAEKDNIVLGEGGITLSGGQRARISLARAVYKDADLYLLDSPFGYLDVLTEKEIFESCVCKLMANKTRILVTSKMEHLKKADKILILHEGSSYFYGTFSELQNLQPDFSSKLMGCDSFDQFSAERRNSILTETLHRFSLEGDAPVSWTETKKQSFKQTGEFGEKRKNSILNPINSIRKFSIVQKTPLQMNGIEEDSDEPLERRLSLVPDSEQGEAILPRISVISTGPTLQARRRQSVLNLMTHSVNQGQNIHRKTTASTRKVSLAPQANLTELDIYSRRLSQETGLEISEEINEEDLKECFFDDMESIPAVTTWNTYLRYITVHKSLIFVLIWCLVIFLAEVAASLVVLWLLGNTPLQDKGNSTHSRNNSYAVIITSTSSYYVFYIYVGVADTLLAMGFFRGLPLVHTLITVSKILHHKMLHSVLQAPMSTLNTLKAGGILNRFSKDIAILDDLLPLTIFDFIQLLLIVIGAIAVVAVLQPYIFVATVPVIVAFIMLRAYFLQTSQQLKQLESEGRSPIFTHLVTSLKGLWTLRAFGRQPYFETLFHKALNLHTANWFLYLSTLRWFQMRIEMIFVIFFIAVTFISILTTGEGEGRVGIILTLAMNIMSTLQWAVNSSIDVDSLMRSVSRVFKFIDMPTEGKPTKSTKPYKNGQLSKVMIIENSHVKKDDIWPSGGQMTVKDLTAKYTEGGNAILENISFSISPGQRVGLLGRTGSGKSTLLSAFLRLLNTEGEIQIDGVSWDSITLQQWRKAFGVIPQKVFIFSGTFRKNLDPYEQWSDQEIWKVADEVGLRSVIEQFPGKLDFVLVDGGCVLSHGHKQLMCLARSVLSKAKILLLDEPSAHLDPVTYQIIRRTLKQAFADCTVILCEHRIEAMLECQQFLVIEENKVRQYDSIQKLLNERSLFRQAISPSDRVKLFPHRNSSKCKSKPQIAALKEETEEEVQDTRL
Sequence of Fibroblast growth factor receptor 1 (P11362 whole entry): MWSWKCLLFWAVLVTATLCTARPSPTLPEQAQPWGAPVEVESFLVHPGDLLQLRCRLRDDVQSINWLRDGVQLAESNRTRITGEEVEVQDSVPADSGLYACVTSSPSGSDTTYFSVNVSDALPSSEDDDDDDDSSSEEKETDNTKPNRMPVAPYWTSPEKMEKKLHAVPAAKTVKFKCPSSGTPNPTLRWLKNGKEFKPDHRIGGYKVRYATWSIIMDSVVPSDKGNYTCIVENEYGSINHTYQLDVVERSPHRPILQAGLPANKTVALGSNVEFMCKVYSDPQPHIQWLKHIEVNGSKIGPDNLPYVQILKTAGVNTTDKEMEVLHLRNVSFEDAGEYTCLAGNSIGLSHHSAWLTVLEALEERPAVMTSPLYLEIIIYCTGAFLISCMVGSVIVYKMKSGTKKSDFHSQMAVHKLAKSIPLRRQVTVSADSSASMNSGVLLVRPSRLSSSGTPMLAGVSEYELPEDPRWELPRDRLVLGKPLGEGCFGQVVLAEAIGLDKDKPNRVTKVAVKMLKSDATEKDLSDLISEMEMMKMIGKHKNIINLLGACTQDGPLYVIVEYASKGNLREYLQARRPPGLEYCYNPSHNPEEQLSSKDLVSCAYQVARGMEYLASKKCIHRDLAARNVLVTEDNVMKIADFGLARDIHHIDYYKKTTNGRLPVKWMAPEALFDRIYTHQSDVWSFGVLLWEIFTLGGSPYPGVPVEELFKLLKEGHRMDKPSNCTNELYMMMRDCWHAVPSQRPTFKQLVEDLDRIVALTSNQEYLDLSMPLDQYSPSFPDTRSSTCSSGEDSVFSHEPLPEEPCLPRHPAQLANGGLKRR
T1 sequence (P11940 whole entry, the tested form may be a part): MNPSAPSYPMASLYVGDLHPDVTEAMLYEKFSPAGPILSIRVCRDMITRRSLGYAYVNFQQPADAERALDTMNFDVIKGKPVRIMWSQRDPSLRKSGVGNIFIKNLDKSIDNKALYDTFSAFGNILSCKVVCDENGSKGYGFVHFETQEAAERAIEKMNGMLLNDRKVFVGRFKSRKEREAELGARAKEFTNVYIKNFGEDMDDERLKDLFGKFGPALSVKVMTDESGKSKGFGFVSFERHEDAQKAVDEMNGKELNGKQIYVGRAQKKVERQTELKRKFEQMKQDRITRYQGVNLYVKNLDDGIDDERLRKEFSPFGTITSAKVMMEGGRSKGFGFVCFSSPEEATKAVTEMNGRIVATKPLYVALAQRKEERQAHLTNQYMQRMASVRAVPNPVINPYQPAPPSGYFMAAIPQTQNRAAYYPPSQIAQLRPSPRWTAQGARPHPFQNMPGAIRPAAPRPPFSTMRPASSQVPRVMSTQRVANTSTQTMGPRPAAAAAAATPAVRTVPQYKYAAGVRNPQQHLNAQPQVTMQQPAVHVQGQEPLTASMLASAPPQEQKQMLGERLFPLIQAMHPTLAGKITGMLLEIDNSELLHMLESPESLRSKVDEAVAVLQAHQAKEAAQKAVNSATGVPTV
Sequence of Glycogen synthase kinase-3 beta (P49841 whole entry): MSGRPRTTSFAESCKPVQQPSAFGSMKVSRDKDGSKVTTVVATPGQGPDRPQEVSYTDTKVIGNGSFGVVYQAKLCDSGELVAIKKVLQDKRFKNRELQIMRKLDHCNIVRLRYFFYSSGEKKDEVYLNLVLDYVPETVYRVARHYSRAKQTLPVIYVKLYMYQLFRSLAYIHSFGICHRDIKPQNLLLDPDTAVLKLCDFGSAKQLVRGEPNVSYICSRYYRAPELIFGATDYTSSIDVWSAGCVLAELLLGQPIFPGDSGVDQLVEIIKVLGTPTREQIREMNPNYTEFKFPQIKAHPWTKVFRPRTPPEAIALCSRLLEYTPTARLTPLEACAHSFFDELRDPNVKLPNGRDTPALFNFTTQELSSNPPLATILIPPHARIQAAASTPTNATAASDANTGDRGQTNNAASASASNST
Sequence of Dual specificity protein kinase CLK4 (Q9HAZ1 whole entry): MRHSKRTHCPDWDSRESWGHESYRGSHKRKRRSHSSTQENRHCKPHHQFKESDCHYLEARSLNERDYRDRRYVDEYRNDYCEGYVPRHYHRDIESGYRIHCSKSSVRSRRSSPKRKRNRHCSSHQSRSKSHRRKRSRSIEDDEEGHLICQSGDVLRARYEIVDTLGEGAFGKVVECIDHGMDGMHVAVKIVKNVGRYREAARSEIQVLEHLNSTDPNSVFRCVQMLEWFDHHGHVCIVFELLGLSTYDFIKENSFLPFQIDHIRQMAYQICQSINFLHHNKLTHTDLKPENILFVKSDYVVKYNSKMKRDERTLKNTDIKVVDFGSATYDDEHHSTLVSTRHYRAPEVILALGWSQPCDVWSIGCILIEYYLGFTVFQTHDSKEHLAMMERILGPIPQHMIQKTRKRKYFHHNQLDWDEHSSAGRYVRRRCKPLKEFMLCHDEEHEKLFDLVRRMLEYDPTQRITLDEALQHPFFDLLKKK
Sequence of Cyclin-dependent kinase 5 (Q00535 whole entry): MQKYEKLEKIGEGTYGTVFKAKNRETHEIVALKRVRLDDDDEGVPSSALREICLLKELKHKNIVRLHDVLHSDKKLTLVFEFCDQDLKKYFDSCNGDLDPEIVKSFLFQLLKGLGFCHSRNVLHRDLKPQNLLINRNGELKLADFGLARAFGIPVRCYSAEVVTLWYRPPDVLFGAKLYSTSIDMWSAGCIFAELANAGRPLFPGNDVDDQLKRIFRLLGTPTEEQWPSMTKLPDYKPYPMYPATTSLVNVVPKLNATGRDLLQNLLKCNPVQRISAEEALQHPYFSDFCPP
Sequence of Aurora kinase B (Q96GD4 whole entry): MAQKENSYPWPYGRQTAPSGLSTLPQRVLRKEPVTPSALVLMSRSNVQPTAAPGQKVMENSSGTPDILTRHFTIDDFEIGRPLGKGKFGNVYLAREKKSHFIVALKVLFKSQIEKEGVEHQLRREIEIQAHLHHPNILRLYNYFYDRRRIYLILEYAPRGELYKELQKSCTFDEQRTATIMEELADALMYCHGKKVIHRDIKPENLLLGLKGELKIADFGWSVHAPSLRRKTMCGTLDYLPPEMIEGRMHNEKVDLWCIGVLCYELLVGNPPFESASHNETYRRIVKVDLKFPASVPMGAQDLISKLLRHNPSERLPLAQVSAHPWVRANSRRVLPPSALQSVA
Sequence of Serine/threonine-protein kinase Chk1 (O14757 whole entry): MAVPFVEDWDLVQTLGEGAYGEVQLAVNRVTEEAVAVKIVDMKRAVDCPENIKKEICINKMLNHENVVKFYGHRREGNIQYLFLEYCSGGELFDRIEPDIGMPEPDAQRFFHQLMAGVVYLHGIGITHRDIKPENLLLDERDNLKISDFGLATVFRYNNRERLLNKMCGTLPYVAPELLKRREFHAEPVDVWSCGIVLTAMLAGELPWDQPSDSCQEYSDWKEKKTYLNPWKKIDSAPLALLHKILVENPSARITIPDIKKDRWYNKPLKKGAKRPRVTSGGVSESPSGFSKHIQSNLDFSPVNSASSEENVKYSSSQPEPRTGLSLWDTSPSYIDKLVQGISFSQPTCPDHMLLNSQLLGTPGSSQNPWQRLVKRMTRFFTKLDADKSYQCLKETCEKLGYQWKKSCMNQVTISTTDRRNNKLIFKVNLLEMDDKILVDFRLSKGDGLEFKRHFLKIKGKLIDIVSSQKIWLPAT

O=C1NCc2c(Br)cccc21
Ki [1]: > 79.4 µM (inactive)
Ki [2]: > 79.4 µM (inactive)
Ki [3]: > 79.4 µM (inactive)
Ki [4]: > 79.4 µM (inactive)
Ki [5]: > 100 µM (inactive)
Ki [6]: > 79.4 µM (inactive)
Ki [7]: > 79.4 µM (inactive)
Ki [8]: > 79.4 µM (inactive)
Ki [9]: > 79.4 µM (inactive)
Ki [10]: 6.31 µM (active)
Ki [11]: > 79.4 µM (inactive)
Ki [12]: > 100 µM (inactive)
Ki [13]: > 63.1 µM (inactive)
Ki [14]: > 79.4 µM (inactive)
Ki [15]: 31.6 µM (active)
Ki [16]: 31.6 µM (active)
Ki [17]: > 63.1 µM (inactive)
Ki [18]: > 79.4 µM (inactive)
Ki [19]: > 63.1 µM (inactive)
Ki [20]: 63.1 µM (active)
Ki [21]: > 79.4 µM (inactive)
Ki [22]: > 79.4 µM (inactive)
Ki [23]: > 79.4 µM (inactive)
Ki [24]: 20 µM (active)
Ki [25]: > 63.1 µM (inactive)
Ki [26]: > 63.1 µM (inactive)
Ki [27]: > 79.4 µM (inactive)
Ki [28]: > 63.1 µM (inactive)
Ki [29]: > 63.1 µM (inactive)
Ki [30]: 20 µM (active)
Ki [31]: > 79.4 µM (inactive)
Ki [32]: > 63.1 µM (inactive)
Ki [33]: > 79.4 µM (inactive)
Ki [34]: > 79.4 µM (inactive)
Ki [35]: 63.1 µM (active)
Ki [36]: > 79.4 µM (inactive)
Ki [37]: 50.1 µM (active)
Ki [38]: > 79.4 µM (inactive)
Ki [39]: > 79.4 µM (inactive)

Nc1cc(Nc2ccc(O)c(CNC(=O)C(F)(F)F)c2)ncn1
Ki [10]: 1.26 µM (active)
Ki [20]: 0.794 µM (active)
Ki [40]: 1.58 µM (active)

O=C(CNC(=O)C(c1ccccc1)c1ccccc1)OCc1ccccc1
IC50 [41]: > 64.6 µM (inactive)
IC50 [42]: > 64.6 µM (inactive)

O=C(O)CSc1cc(NS(=O)(=O)c2cccc([N+](=O)[O-])c2)c2ccccc2c1O
AC50 [43]: 21.2 µM (active)
CC50 [44]: 7.45 µM (active)
IC50 [45]: 35.5 µM (inactive)
AC50 [46]: 52 µM (active)
AC50 [47]: 44.7 µM (active)
AC50 [48]: 21.7 µM (active)
CC50 [49]: 26.5 µM (active)
AC50 [50]: 42.7 µM (active)
IC50 [51]: 5.62 µM (active)
IC50 [52]: 5.4 µM (active)
IC50 [53]: 13.6 µM (active)
AC50 [54]: 17.6 µM (active)
AC50 [55]: 12.1 µM (active)
IC50 [56]: > 50 µM (not active)
IC50 [57]: 12.9 µM (inactive)
IC50 [58]: 12.2 µM (active)
IC50 [59]: > 66 µM (inactive)
IC50 [60]: 17.4 µM (not active)

O=C1NCc2ccc(-c3ccc(Cl)cc3)cc21
Ki [61]: 63.1 µM (active)
Ki [23]: 63.1 µM (active)
Ki [62]: 63.1 µM (active)
Ki [29]: 63.1 µM (active)
Ki [63]: 50.1 µM (active)

Nc1nc(SCC(=O)Nc2ncccn2)nc2nc[nH]c12
Ki [64]: 3.98 µM (active)
Ki [65]: > 2 µM (inactive)
Ki [21]: 0.0794 µM (active)
